Measurements reported in patent publication US20120135864A1, “POLLINATION IMPROVER” (TAMINCO, NAAMLOZE VENNOOTSCHAP, priority 2009, published 2012).

Assays:
Type in all cases: in vivo
Winter Barley cv Carat = experiment: Winter barley pot trial under glasshouse conditions: grain yield and thousand grain weight; details: for Grain Yield (%) T1 Timing / Grain Yield (%) T2 Timing: untreated = 100; for Grain Yield (g per Pot) T1 Timing: sprayed at T1 (Growth Stage 52: one quarter ear emergence); for Grain Yield (g per Pot) T2 Timing: sprayed at T2 (Growth Stage 65-69: at time of anthesis)
Protocol: (§1) The applied concentration of the composition of the present invention can vary widely depending on the water volume applied to plants as well as other factors such as plant age and size, and plant sensitivity to the final seed yield and crop quality improver. […] The rate of other components such as spreaders and stickers can be 50-200 ml per ha. The rate of cytokinin can typically be 0.001 to 1.0 percent of the formulation. […] ADD=at least one from class (f) each at <3 g/l, plus at least one from class (c). Winter Barley: […] Harvested: 28 July. […] Harvested: 28 July. Navy Bean: […] Harvested: 28 August. […] Harvested: 28 August. Statistical Layout: Randomised Complete Block trial, under glasshouse conditions, United Kingdom.

Winter Wheat cv Limerick = experiment: Winter wheat pot trial under glasshouse conditions: grain yield and thousand grain weight; details: for Grain Yield (%) T1 Timing / Grain Yield (%) T2 Timing: relative to untreated; for Grain Yield (g per Pot) T1 Timing: sprayed at T1 (Growth Stage 52: one quarter ear emergence); for Grain Yield (g per Pot) T2 Timing: sprayed at T2 (Growth Stage 65-69: at time of anthesis)
Protocol: as §1

[1] = tested on: Phaseolus vulgaris (NAVY BEAN) cv Primel; experiment: Navy bean pot trial under glasshouse conditions: seed yield and seed weight; details: for Seed Yield (%) T1 Timing / Seed Yield (%) T2 Timing: relative to untreated; for Seed Yield (g per Pot) T1 Timing: sprayed at T1 (Growth Stage R1: first flowering); for Seed Yield (g per Pot) T2 Timing: sprayed at T2 (Growth Stage R3)
Protocol: as §1

Glycine max (SOYBEAN) = experiment: Soybean pot trial under glasshouse conditions: seed yield and thousand seed weight; details: for Seed Yield (%) T1 Timing / Seed Yield (%) T2 Timing: relative to untreated; for Seed Yield (g per Pot) T1 Timing: sprayed at T1 (Growth Stage R1: first flowering); for Seed Yield (g per Pot) T2 Timing: sprayed at T2 (Growth Stage R3)
Protocol: as §1

[2] = tested on: Winter Wheat (Mean of 3 Varieties); experiment: Grain quality improvement pot trial, winter wheat
Description: (§2) Thousand grain weight, specific weight and % screenings are different aspects of crop quality. For example, specific weight (bushel weight) is the weight of a given volume of grain, expressed in kg/hl. For example, growers have to meet standards of 76 for wheat and 64 for barley in order to meet minimum quality requirements. Varieties with the highest values are those most likely to produce acceptable grain lots. Aspects of crop quality for different varieties of crops are found in The Pocket Guide to Varieties of Cereals, Oilseeds and Pulses (NIAB Association). Other quality standards include, but are not limited to, endosperm texture, protein content (%), Hagberg falling number, Zeleny volume (cc), Chopin Alveograph, malt extract, IBD approval—brewing, IBD approval—distilling, IBD approval—grain distilling, sieving %<2.25 mm, sieving %<2.5 mm, nitrogen content, kernel content, sieving %<2.0 mm, oil content (%), oil type, hilum colour, overseas malting, hot water extract, and seed colour. Examples of % screenings are 2.2 mm and 2.5 mm. Such measures can be used in determining the effect provided by the present invention.
(§3) The TAMPF formulation example in these experiments included AN+AC+ADD, applied at the rate of 1 litre per hectare. ADD=at least one from class (f) each at <3 g/l, plus at least one from class (c).
(§4) Trials information: grown in pots in standard multi-purpose compost of pH 6.5, at 6/7 seeds per 9 cm pot (winter wheat), or 5/6 seeds per 9 cm pot (winter barley). Sprayed at the start of the anthesis growth stage (=shortly after ear emergence: GS60)

[3] = tested on: Winter Barley (Mean of 3 Varieties); experiment: Grain quality improvement pot trial, winter barley
Description: as §2, §3, §4

[4] = sprayed at start of anthesis (GS60)

Compound	Grain Yield (%) T1 Timing (Winter Barley cv Carat; T1 (Growth Stage 52)) [%]	Grain Yield (%) T2 Timing (Winter Barley cv Carat; T2 (Growth Stage 65-69)) [%]	Grain Yield (g per Pot) T1 Timing (Winter Barley cv Carat) [g per Pot]	Grain Yield (g per Pot) T2 Timing (Winter Barley cv Carat) [g per Pot]	Grain Yield (%) T1 Timing (Winter Wheat cv Limerick; T1 (Growth Stage 52)) [%]	Grain Yield (%) T2 Timing (Winter Wheat cv Limerick; T2 (Growth Stage 65-69)) [%]	Grain Yield (g per Pot) T1 Timing (Winter Wheat cv Limerick) [g per Pot]	Grain Yield (g per Pot) T2 Timing (Winter Wheat cv Limerick) [g per Pot]	Seed Yield (%) T1 Timing ([1]; T1 (Growth Stage R1)) [%]	Seed Yield (%) T2 Timing ([1]; T2 (Growth Stage R3)) [%]	Seed Yield (g per Pot) T1 Timing [1] [g per Pot]	Seed Yield (g per Pot) T2 Timing [1] [g per Pot]	Seed Yield (%) T1 Timing (Glycine max (SOYBEAN); T1 (Growth Stage R1)) [%]	Seed Yield (%) T2 Timing (Glycine max (SOYBEAN); T2 (Growth Stage R3)) [%]	Seed Yield (g per Pot) T1 Timing (Glycine max (SOYBEAN)) [g per Pot]	Seed Yield (g per Pot) T2 Timing (Glycine max (SOYBEAN)) [g per Pot]	also measured
CC(=O)Nc1ccc(O)cc1 [AC, N-(4-hydroxypheyl)acetamide, reference compound]	102.8	98.8	25.5	24.5	98.0	103.7	29.3	31.0	98.0	99.8	53.3	54.3	101.8	101.8	33.5	33.5	–
O=S(O)(O)=S [Thiosulphate]	102.8	102.4	25.5	25.4	108.4	111.7	32.4	33.4	108.6	109.9	59.1	59.8	108.8	110.3	35.8	36.3	Thousand Grain Weight (g) T1 Timing (Winter Barley cv Carat; T1 (Growth Stage 52)): 46.5 g; Thousand Grain Weight (g) T2 Timing (Winter Barley cv Carat; T2 (Growth Stage 65-69)): 46.4 g; Thousand Grain Weight (g) T1 Timing (Winter Wheat cv Limerick; T1 (Growth Stage 52)): 50.4 g; Thousand Grain Weight (g) T2 Timing (Winter Wheat cv Limerick; T2 (Growth Stage 65-69)): 50.7 g; Indiv Seed Weight (mg) T1 Timing ([1]; T1 (Growth Stage R1)): 276 mg; Indiv Seed Weight (mg) T2 Timing ([1]; T2 (Growth Stage R3)): 275 mg; Thousand Seed Weight (g) T1 Timing (Glycine max (SOYBEAN); T1 (Growth Stage R1)): 160 g; Thousand Seed Weight (g) T2 Timing (Glycine max (SOYBEAN); T2 (Growth Stage R3)): 159 g; % Screenings (2.2 mm) ([2]; sprayed at GS60, 2.2 mm): 4.5%; % Screenings (2.5 mm) ([2]; sprayed at GS60, 2.5 mm): 8.0%; Specific Weight (kg/hl) [2, 4]: 74.0 kg/hl; % Screenings (2.2 mm) ([3]; sprayed at GS60, 2.2 mm): 4.8%; % Screenings (2.5 mm) ([3]; sprayed at GS60, 2.5 mm): 7.3%; Specific Weight (kg/hl) [3, 4]: 68.3 kg/hl
Nc1ccccc1C(=O)O [AN, anthranilic acid]	96.8	98.8	24.0	24.5	99.7	98.7	29.8	29.5	102.0	98.0	55.5	53.3	99.7	101.2	32.8	33.3	–
